This is an account of results in patent US8008488B2 (Abbott GmbH & Co. KG, priority 2003, dated 2011).

Experiment [1] concerns the target T1, human dopamine D3 receptors (Homo sapiens, UniProt P35462).
T1 construct: expressed in transfected cells
Put plainly: Dopamine D3 receptor binding, displacement of [125I]-iodosulpride. The note with it: membranes from HEK-293 cells with stably expressed human D3 receptors, 0.1 nM [125I]-iodosulpride. How it is done: (§1) The substance to be tested was dissolved either in methanol/Chremophor® (BASF-AG) or in dimethyl sulfoxide and then diluted with water to the desired concentration.
(§2) Triplicate mixtures were carried out.
The incubation buffer contained 50 mM Tris, 120 mM NaCl, 5 mM KCl, 2 mM CaCl2, 2 mM MgCl2 and 0.1% bovine serum albumin, 10 μM quinolone, 0.1% ascorbic acid (prepared fresh each day). The buffer was adjusted to pH 7.4 with HCl.
(§3) Measurement and Evaluation:
(§4) After incubation at 25° C. for 60 minutes, the mixtures were filtered under vacuum through Whatman GF/B glass fiber filters using a cell harvester. The filters were transferred by a filter transfer system into scintillation vials. After addition of 4 ml of Ultima Gold® (Packard), the samples were shaken for one hour and then the radioactivity was calculated in a beta counter (Packard, Tricarb 2000 or 2200CA). The cp values were converted into dpm by means of a standard quench series with the aid of the instrument's own program.
(§5) Evaluation of the inhibition plots took place by iterative nonlinear regression analysis using the Statistical Analysis System (SAS) similar to the “LIGAND” program described by Munson and Rodbard.
On the technique in general: Displacement assays read how much labelled ligand stays bound in the presence of the test substance.

Experiment [2] deals with T2, human dopamine D2L receptors (long isoform) (Homo sapiens, UniProt P14416).
T2 construct: expressed in transfected cells
As to the kind of experiment: Dopamine D2L receptor binding, displacement of [125I]-iodospiperone. The note with it: *Ki(D2L)/Ki(D3), HEK-293 membranes, 0.01 nM [125I]-iodospiperone. As to the method:
as §1, §2
The incubation buffer contained 50 mM Tris, 120 mM NaCl, 5 mM KCl, 2 mM CaCl2, 2 mM MgCl2 and 0.1% bovine serum albumin. The buffer was adjusted to pH 7.4 with HCl.
as §3, §4, §5

Counter-ions that a name gives are not always drawn.

T1 sequence (P35462 whole entry): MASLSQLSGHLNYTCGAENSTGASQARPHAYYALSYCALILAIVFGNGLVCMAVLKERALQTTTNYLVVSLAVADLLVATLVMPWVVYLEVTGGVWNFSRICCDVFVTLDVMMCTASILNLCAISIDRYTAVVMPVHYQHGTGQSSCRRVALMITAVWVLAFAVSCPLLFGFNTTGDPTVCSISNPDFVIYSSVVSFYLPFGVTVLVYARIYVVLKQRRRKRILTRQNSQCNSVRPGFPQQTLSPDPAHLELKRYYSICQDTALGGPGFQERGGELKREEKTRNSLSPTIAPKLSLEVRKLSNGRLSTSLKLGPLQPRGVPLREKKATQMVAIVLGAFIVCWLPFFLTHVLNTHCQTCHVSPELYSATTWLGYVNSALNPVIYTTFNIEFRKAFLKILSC
T2 sequence (P14416 whole entry, canonical isoform): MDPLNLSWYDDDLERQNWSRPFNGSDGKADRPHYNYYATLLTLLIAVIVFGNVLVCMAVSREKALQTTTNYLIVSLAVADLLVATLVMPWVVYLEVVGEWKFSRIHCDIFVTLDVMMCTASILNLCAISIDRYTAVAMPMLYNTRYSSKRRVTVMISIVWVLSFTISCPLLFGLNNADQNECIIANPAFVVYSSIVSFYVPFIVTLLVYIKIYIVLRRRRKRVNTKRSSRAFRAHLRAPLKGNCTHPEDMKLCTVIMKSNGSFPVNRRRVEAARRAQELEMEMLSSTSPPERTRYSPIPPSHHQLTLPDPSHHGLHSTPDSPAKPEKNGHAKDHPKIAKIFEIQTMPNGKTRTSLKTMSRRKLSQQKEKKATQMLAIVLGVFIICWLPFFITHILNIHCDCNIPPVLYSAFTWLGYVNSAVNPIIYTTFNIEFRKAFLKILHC

Broadly, the Ki is a measure of affinity in units of concentration, obtained from inhibition or displacement. In the case of `Cc1cn(CC(C)CCN2CCN(c3cc(C(F)(F)F)nc(C(C)(C)C)n3)CC2)c(=O)[nH]c1=O` (stereo not shown) [Example 37, 1-(4-{4-[2-tert-Butyl-6-(trifluoromethyl)pyrimidin-4-yl]piperazin-1-yl}-2-methylbutyl)-5-methylpyrimidine-2,4(1H,3H)-dione], the inhibitory constant (Ki) in experiment [1] stood at 3.24 nM. For the same compound, the “Selectivity D3 vs. D2L*” value in experiment [2] is 126.

In experiment [1], `Cc1cnc(=O)n(CCCCN2CCN(c3cc(C(F)(F)F)nc(C(C)(C)C)n3)CC2)c1` [Example 6, 1-(4-{4-[2-tert-Butyl-6-(trifluoromethyl)pyrimidin-4-yl]piperazin-1-yl}butyl)-5-methylpyrimidin-2(1H)-one] returned a Ki of 31.2 nM. For the same compound, the “Selectivity D3 vs. D2L*” value in experiment [2] is listed as 35.

The compound `Cc1cn(CCCC(C)N2CCN(c3cc(C(F)(F)F)nc(C(C)(C)C)n3)CC2)c(=O)[nH]c1=O` (stereo not shown) [Example 54, 1-{4-[4-(2-tert-Butyl-6-trifluoromethylpyrimidin-4-yl)piperazin-1-yl]pentyl}-5-methyl-1H-pyrimidine-2,4-dione] returned a Ki in experiment [1] of 9.25 nM. The “Selectivity D3 vs. D2L*” value in experiment [2] worked out at 52.

The compound `CCCc1cc(N2CCN(CCCCn3ccc(-c4ccc(C)cc4)nc3=O)CC2)nc(C(C)(C)C)n1` [Example 75, 4-(2-tert-Butyl-6-propylpyrimidin-4-yl)-1-[4-(2-oxo-4-(p-tolyl)-2H-pyrimidin-1-yl)butyl]piperazine 1-fumarate] showed an inhibition constant (Ki) in experiment [1] of 2.3 nM. In experiment [2], the “Selectivity D3 vs. D2L*” value came out at 80.

As for `CCCc1cc(N2CCN(CCCCn3ccc(C4CCCCC4)nc3=O)CC2)nc(C(C)(C)C)n1` [Example 100, 4-(2-tert-Butyl-6-propylpyrimidin-4-yl)-1-[4-(4-cyclohexyl-2-oxo-2H-pyrimidin-1-yl)butyl]piperazin-1-ium fumarate], the Ki in experiment [1] is 1.38 nM. For the same compound, in experiment [2], the “Selectivity D3 vs. D2L*” value is 51.

Turning to `CCCc1cc(N2CCN(CCCCn3ccc(-c4ccco4)nc3=O)CC2)nc(C(C)(C)C)n1` [Example 50, 1-{4-[4-(2-tert-Butyl-6-propylpyrimidin-4-yl)piperazin-1-yl]butyl}-4-furan-2-yl-1H-pyrimidin-2-one], the Ki in experiment [1] was 0.72 nM. Besides, the “Selectivity D3 vs. D2L*” value in experiment [2] worked out at 77.

`CCCc1cc(N2CCN(CCCCn3cc(C)c(O)nc3=O)CC2)nc(C(C)(C)C)n1` [Example 10, 1-{4-[4-(2-tert-Butyl-6-propylpyrimidin-4-yl)piperazin-1-yl]butyl}-4-hydroxy-5-methylpyrimidin-2(1H)-one]: in experiment [1], the inhibition constant Ki was 1.75 nM. Besides, the “Selectivity D3 vs. D2L*” value in experiment [2] came out at 97.

Take `CCCc1cc(N2CCN(CCCCn3ccc(-c4ccc(F)cc4)nc3=O)CC2)nc(C(C)(C)C)n1` [Example 44, 1-{4-[4-(2-tert-Butyl-6-propylpyrimidin-4-yl)piperazin-1-yl]butyl}-4-(4-fluorophenyl)-1H-pyrimidin-2-one]: the affinity in experiment [1] corresponds to a Ki of 0.63 nM. Besides, the “Selectivity D3 vs. D2L*” value in experiment [2] is reported as 158.

Consider `CC(C)c1ccn(CCCCN2CCN(c3cc(C(F)(F)F)nc(C(C)(C)C)n3)CC2)c(=O)n1` [Example 97, 4-(2-tert-Butyl-6-trifluoromethylpyrimidin-4-yl)-1-[4-(4-isopropyl-2-oxo-2H-pyrimidin-1-yl)butyl]piperazin-1-ium fumarate], for which the affinity in experiment [1] corresponds to a Ki of 4.26 nM. Besides, in experiment [2], the “Selectivity D3 vs. D2L*” value is 58.

`Cc1cccc(N2CCN(CCCCn3cc(C)c(=O)[nH]c3=O)CC2)c1C` [Example 128, 1-{4-[4-(2,3-Dimethylphenyl)piperazin-1-yl]butyl}-5-methyl-1H-pyrimidine-2,4-dione] yielded a Ki in experiment [1] of 2.4 nM. In experiment [2], the “Selectivity D3 vs. D2L*” value amounted to 55.

For the compound `CCCc1cc(N2CCN(CCCCn3ccc(O)nc3=O)CC2)nc(C(C)(C)C)n1` [Example 20, 1-{4-[4-(2-tert-Butyl-6-propylpyrimidin-4-yl)piperazin-1-yl]butyl}-4-hydroxypyrimidin-2(1H)-one], in experiment [1], affinity was put at a Ki of 1.87 nM. Moreover, the “Selectivity D3 vs. D2L*” value in experiment [2] is reported as 108.

In the case of `CCCc1cc(N2CCN(CCCCn3cc(CC)c(=O)[nH]c3=O)CC2)nc(C(C)(C)C)n1` [Example 84, 4-(2-tert-Butyl-6-propylpyrimidin-4-yl)-1-[4-(5-ethyl-2,4-dioxo-3,4-dihydro-2H-pyrimidin-1-yl)butyl]piperazin-1-ium fumarate], in experiment [1], the affinity corresponds to a Ki of 0.75 nM. Moreover, the “Selectivity D3 vs. D2L*” value in experiment [2] worked out at 63.

Consider `C/C(=C\CN1CCN(c2cc(C(F)(F)F)nc(C(C)(C)C)n2)CC1)Cn1cc(C)c(=O)[nH]c1=O` [Example 36, 1-((2E)-4-{4-[2-tert-Butyl-6-(trifluoromethyl)pyrimidin-4-yl]piperazin-1-yl}-2-methylbut-2-en-1-yl)-5-methylpyrimidine-2,4(1H,3H)-dione], for which affinity in experiment [1] was put at a Ki of 3.82 nM. The “Selectivity D3 vs. D2L*” value in experiment [2] stood at 209.

`CCCc1cc(N2CCN(C/C=C(\C)Cn3cc(C)c(=O)[nH]c3=O)CC2)nc(C(C)(C)C)n1` [Example 65] had a Ki in experiment [1] of 3.31 nM. In experiment [2], the “Selectivity D3 vs. D2L*” value amounted to 62.

In experiment [1], `O=c1ccn(CCCCN2CCN(c3cccc(Cl)c3Cl)CC2)c(=O)[nH]1` [Example 78, 1-{4-[4-(2,3-Dichlorophenyl)piperazin-1-yl]butyl}-1H-pyrimidine-2,4-dione] registered an inhibition constant Ki of 0.32 nM. Further, the “Selectivity D3 vs. D2L*” value in experiment [2] is 48.

`O=c1nc(-c2ccccc2)ccn1CCCCN1CCN(c2cccc(Cl)c2Cl)CC1` [Example 81, 4-(2,3-Dichlorophenyl)-1-[4-(2-oxo-4-phenyl-2H-pyrimidin-1-yl)butyl]piperazin-1-ium fumarate] returned an inhibitory constant (Ki) in experiment [1] of 2.56 nM. The “Selectivity D3 vs. D2L*” value in experiment [2] is given as 94.

On to `CCCc1cc(N2CCN(CCCCn3ccc(-c4ccccc4)nc3=O)CC2)nc(C(C)(C)C)n1` [Example 49, 1-{4-[4-(2-tert-Butyl-6-propylpyrimidin-4-yl)piperazin-1-yl]butyl}-4-phenyl-1H-pyrimidin-2-one], for which, in experiment [1], the Ki was 0.54 nM. The “Selectivity D3 vs. D2L*” value in experiment [2] stood at 86.

Consider `Cc1cn(CCCCN2CCN(c3cc(C(F)(F)F)nc(C(C)(C)C)n3)CC2)c(=O)nc1N(C)C.Cl` [Example 12, 1-[2-tert-Butyl-6-(trifluoromethyl)pyrimidin-4-yl]-4-{4-[4-(dimethylamino)-5-methyl-2-oxopyrimidin-1 (2H)-yl]butyl}piperazin-4-ium chloride], for which affinity in experiment [1] was put at a Ki of 3.44 nM. Moreover, the “Selectivity D3 vs. D2L*” value in experiment [2] is 63.

As to `Cc1cn(CCCCN2CCN(c3cc(C4CCC4)nc(C(C)(C)C)n3)CC2)c(=O)nc1O` [Example 22, 1-{4-[4-(2-tert-Butyl-6-cyclobutylpyrimidin-4-yl)piperazin-1-yl]butyl}-4-hydroxy-5-methylpyrimidin-2(1H)-one], the affinity in experiment [1], expressed as Ki, was 1.16 nM. Moreover, the “Selectivity D3 vs. D2L*” value in experiment [2] is given as 77.

The compound `CC(C)(C)c1nc(N2CCN(CCCCn3ccc(C(F)(F)F)nc3=O)CC2)cc(C(F)(F)F)n1.Cl` [Example 15, 1-[2-tert-Butyl-6-(trifluoromethyl)pyrimidin-4-yl]-4-{4-[2-oxo-4-(trifluoromethyl)pyrimidin-1 (2H)-yl]butyl}piperazin-4-ium chloride] came in with an inhibition constant Ki in experiment [1] of 14.5 nM. Further, the “Selectivity D3 vs. D2L*” value in experiment [2] is 64.

Turning to `CC(C)(C)c1nc(N2CCN(CCCCn3cc(F)c(=O)[nH]c3=O)CC2)cc(C(F)(F)F)n1.Cl` [Example 16, 1-[2-tert-Butyl-6-(trifluoromethyl)pyrimidin-4-yl]-4-[4-(5-fluoro-2,4-dioxo-3,4-dihydro-pyrimidin-1 (2H)-yl)butyl]piperazin-4-ium chloride], the Ki in experiment [1] was 2.99 nM. In addition, the “Selectivity D3 vs. D2L*” value in experiment [2] stood at 201.

In the case of `CC(CCCn1ccc(=O)[nH]c1=O)N1CCN(c2cc(C(F)(F)F)nc(C(C)(C)C)n2)CC1` (stereo not shown) [Example 62, 1-{4-[4-(2-tert-Butyl-6-trifluoromethylpyrimidin-4-yl)piperazin-1-yl]pentyl}-1H-pyrimidine-2,4-dione], in experiment [1], the Ki is 11 nM. The “Selectivity D3 vs. D2L*” value in experiment [2] is on record as 49.

Compound `O=c1[nH]c(=O)n(CCCCN2CCN(c3cccc(Cl)c3Cl)CC2)cc1F` [Example 79, 1-{4-[4-(2,3-Dichlorophenyl)piperazin-1-yl]butyl}-5-fluoro-1H-pyrimidine-2,4-dione] returned an inhibition constant (Ki) in experiment [1] of 0.86 nM. In addition, the “Selectivity D3 vs. D2L*” value in experiment [2] came to 30.

`CCCc1cc(N2CCN(CCCCn3ccc(C(C)(C)C)nc3=O)CC2)nc(C(C)(C)C)n1.Cl` [Example 21, 1-[4-(4-tert-Butyl-2-oxopyrimidin-1 (2H)-yl)butyl]-4-(2-tert-butyl-6-propylpyrimidin-4-yl)piperazin-1-ium chloride] displayed a Ki in experiment [1] of 1.94 nM. In experiment [2], the “Selectivity D3 vs. D2L*” value is recorded as 96.

In experiment [1], `CC(C)(C)c1nc(C2CCC2)cc(N2CCN(CCCCn3ccc(=O)[nH]c3=O)CC2)n1` [Example 23, 1-{4-[4-(2-tert-Butyl-6-cyclobutylpyrimidin-4-yl)piperazin-1-yl]butyl}pyrimidine-2,4(1H,3H)-dione] gave a Ki of 1.51 nM. Besides, the “Selectivity D3 vs. D2L*” value in experiment [2] worked out at 63.

`CCCc1cc(N2CCN(CCCCn3ccc(C)nc3=O)CC2)nc(C(C)(C)C)n1.Cl` [Example 35, 4-(2-tert-Butyl-6-propylpyrimidin-4-yl)-1-[4-(4-methyl-2-oxopyrimidin-1 (2H)-yl)butyl]piperazin-1-ium chloride] showed an inhibitory constant (Ki) in experiment [1] of 4.96 nM. For the same compound, in experiment [2], the “Selectivity D3 vs. D2L*” value is recorded as 116.
